# pIC50: −log10 of the molar value.
# Key:
# ABCB1 transporter [1] = molecular target: T1, ABCB1 transporter (Homo sapiens, UniProt P08183); test: HOE (Hoechst 33342) accumulation in MDCKII-ABCB1 cells; type: cell-based; details: 8 µM HOE, end-point fluorescence at 30 min, 50% of each compound's own maximum inhibitory activity, read-out: IC50, inhibition of ABCB1-mediated efflux of HOE
# T1 construct: expressed in transfected cells; host or cells: MDCKII (canine kidney) cells transduced with human ABCB1, from Prof; Piet Borst and Dr. Alfred Schinkel (The Netherlands Cancer Institute)
# Description: (§1) To investigate the inhibitory activity of CDKi on ABCB1, the intracellular accumulation of HOE, a fluorescent ABCB1 substrate, was examined in both MDCKII-ABCB1 and MDCKII parent cell lines in the presence and absence of the tested compounds. The reduction in fluorescence intensity in ABCB1-transduced cells indicates the efflux activity of the ABCB1 transporter, its inhibition increases HOE accumulation and thus the intracellular fluorescence.
# (§2) The assay was conducted as previously described and optimized for application in ABCB1-expressing cells. Briefly, MDCKII-ABCB1 and MDCKII parent cells were seeded at 5×10^4 cells per well on a 96-well culture plate and used for accumulation experiments after 24 h cultivation. The medium was removed and cells were washed twice with prewarmed phosphate buffered saline (PBS) at pH 7.4.
# ABCB1 transporter [2] = molecular target: T1, ABCB1 transporter; test: DNR accumulation in MDCKII-ABCB1 cells (flow cytometry), normalized to parental MDCKII; type: cell-based; details: 1 - 20 µM CDKi, 2 µM DNR
# Description: Briefly, MDCKII-ABCB1 and MDCKII parent cells were seeded at 1.5×10^5 cells per well on a 12-well plate 24 h before the experiment. The medium was removed and the cells were washed with prewarmed PBS. The cells were then preincubated in Opti-MEM, with or without CDKi or LY at 37°C in 5% CO2 for 30 min. […] Accumulation was stopped by cooling the samples on ice, removing the medium and washing twice with ice-cold PBS. The cells were then detached from the plates with 10× trypsin-EDTA, resuspended in PBS with 2% FBS and transferred to Eppendorf tubes, which were placed on ice until analysis. […] The median fluorescence (MF) intensity of 10,000 measured cells was used to compare the fluorescence resulting from each of the treatments. […] The MF intensity of untreated cells was subtracted from fluorescence values obtained for all the measured samples.
# To quantify the inhibitory effect of each tested compound on the ABCB1 transporter in the MDCKII-ABCB1 cell line, the ratio between the MF intensity with or without inhibitor was calculated and normalized to the effect in the parental MDCKII cell line according to the following equation [30]: [drawing 1]
# mouse P-glycoprotein = tested on: mouse P-glycoprotein; parameters: method as in PMID 15338193; details: cited from earlier work
# ABCB1 [3] = molecular target: T2, ABCB1 (Homo sapiens, UniProt P08183); test: ABCB1-ATPase inhibition assay (verapamil-stimulated), Sf9 membranes; type: biochemical; parameters: purchased Solvo Biotechnology (Szeged, Hungary); host or cells: Sf9 insect cell membranes; details: 140 nM to 300 µM
# Description: (§3) The drug efflux function of ABCB1 is linked to hydrolysis of ATP by ATPase, which is stimulated in the presence of ABCB1 substrates. In the activation assay, transported substrates can stimulate baseline vanadate-sensitive ATPase activity, whereas in the inhibition assay, which is carried out in the presence of a known activator of the transporter, inhibitors may reduce the maximal vanadate-sensitive ATPase activity. ATPase activity was measured by assessing the amount of phosphate liberated from ATP by the ABCB1 transporter using the […] ATPase kit for ABCB1 according to the manufacturer’s instructions. For this purpose, Sf9 cell membranes (4 µg protein per well) were mixed with each of the test compounds (singly) in solutions with concentrations ranging from 140 nM to 300 µM, then incubated at 37°C for 10 min in the presence or absence of 1.2 mM sodium orthovanadate. The reaction was started by adding 10 mM ATP solution (magnesium salt) to the reaction mixture, stopped 10 min later, and the absorbance at 590 nm was measured after a further 30 min incubation (GeniosPlus apparatus; Tecan, Männedorf, Switzerland). The ATPase activity in each sample was determined as the difference in liberated amounts of phosphate measured in the presence and absence of 1.2 mM sodium orthovanadate. Phosphate standards were prepared in each plate and verapamil served as a positive control for ABCB1 stimulation. The results are expressed as vanadate-sensitive ATPase activities.
# ABCB1 [4] = molecular target: T2, ABCB1; test: ABCB1-ATPase activation assay (baseline), Sf9 membranes; type: biochemical; parameters: purchased Solvo Biotechnology (Szeged, Hungary); host or cells: Sf9 insect cell membranes; details: from ATPase activity in Sf9 membranes overexpressing human ABCB1
# Description: as §3
# ABCB1 [5] = molecular target: T2, ABCB1; test: HOE (Hoechst 33342) accumulation in MDCKII-ABCB1 cells; type: cell-based; parameters: expressed in transfected cells; host or cells: MDCKII (canine kidney) cells transduced with human ABCB1, from Prof; Piet Borst and Dr. Alfred Schinkel (The Netherlands Cancer Institute); details: human, probe Hoechst 33342 (HOE), 8 µM, CDKi applied at their respective IC50 concentrations, % as strongly as LY, read-out: Inhibition of HOE efflux relative to LY
# Description: as §1, §2
# T2 sequence (P08183 whole entry): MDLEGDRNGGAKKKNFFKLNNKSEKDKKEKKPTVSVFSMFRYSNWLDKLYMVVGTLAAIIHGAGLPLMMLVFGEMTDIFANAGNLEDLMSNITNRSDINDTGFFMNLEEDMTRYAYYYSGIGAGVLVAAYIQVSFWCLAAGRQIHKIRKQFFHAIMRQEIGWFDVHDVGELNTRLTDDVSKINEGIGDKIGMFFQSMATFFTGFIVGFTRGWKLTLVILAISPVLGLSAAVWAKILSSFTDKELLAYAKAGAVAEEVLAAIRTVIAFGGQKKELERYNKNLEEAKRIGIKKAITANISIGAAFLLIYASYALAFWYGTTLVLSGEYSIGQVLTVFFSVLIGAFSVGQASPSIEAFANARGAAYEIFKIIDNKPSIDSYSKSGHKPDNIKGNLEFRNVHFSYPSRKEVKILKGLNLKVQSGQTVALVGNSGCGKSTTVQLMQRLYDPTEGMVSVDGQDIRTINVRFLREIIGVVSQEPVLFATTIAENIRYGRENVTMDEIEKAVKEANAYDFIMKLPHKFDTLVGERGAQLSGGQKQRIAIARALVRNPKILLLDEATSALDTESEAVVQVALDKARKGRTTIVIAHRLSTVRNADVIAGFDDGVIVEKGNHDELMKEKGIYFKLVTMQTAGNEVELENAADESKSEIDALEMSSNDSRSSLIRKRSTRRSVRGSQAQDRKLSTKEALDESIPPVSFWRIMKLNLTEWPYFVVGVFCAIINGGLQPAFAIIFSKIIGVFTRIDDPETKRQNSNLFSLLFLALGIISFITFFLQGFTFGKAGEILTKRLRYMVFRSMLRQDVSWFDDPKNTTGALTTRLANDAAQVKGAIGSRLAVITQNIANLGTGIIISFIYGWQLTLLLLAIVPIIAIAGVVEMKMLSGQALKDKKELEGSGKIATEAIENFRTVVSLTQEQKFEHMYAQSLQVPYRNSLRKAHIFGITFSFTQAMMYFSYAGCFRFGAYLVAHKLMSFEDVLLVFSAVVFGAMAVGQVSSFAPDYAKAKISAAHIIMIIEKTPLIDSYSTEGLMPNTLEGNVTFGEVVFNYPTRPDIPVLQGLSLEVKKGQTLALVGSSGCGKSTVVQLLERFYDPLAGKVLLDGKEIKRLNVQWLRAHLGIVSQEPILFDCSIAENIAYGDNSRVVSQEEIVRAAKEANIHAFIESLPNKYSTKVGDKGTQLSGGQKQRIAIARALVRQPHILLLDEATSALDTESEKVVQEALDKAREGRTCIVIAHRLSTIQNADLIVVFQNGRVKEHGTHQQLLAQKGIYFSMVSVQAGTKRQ
# T1 sequence (P08183 whole entry): as above
smiles,measurement,setting,value
CC(C)(C)c1cnc(CSc2cnc(NC(=O)C3CCNCC3)s2)o1 [SNS-032],pIC50,ABCB1 transporter [1],4.84
same,Inhibition of DNR efflux/accumulation across applied range,ABCB1 transporter [2],did not inhibit DNR accumulation at any tested concentration
same,Substrate of mouse P-glycoprotein (brain levels Abcb1 knockout vs wild type mice),mouse P-glycoprotein,substrate of mouse P-glycoprotein
same,Effect on verapamil-stimulated vanadate-sensitive ATPase activity of ABCB1,ABCB1 [3],only slightly reduced it at the highest tested concentration
same,ABCB1 substrate classification,ABCB1 [4],non-substrates of ABCB1
same,inhibition at 30 min,ABCB1 [5],23%
